Patent publication US20160120915A1, “METHODS FOR MANIPULATING IMMUNE RESPONSES BY ALTERING MICROBIOTA” (NEW YORK UNIVERSITY, priority 2013, published 2016)
Counter-ions that a name gives are not always drawn.

Legend:
pancreatic islets = assay: NOD: pancreatic insulitis scoring in 6-week old mice; assay type: in vivo; details: p<0.05
Method: Pancreata from 6-week-old control, STAT and PAT mice were fixed in modified Bouin's fixative (17 ml saturated aqueous picric acid, 1 ml glacial acetic acid, 2 ml 38-40% formalin) and paraffin embedded, cut, and stained with Aldehyde Fuchsin for insulitis scoring (Leiter, Curr Protoc Immunol. 2001; Chapter 15:Unit 15 9). Five sections were made for each pancreas. Each of the sections is 5 microns thick with a 70 microns gap between sections. Insulitis was scored on a scale of 0-4: 0, normal islet; 1, peri-insular leukocyte aggregates; 2, leukocyte infiltration <25%; 3, leukocyte infiltration >25%, but <75%; 4, leukocyte infiltration >75% and β-cell destruction. For each mouse, an insulitis score was calculated based on the following formula: (total score for all islets)/(4×number of islets examined) (Forestier et al., Journal of immunology. 2007; 178, 1415). […] The most severely affected islet was scored from each section. Insulitis was scored on a scale of 0-4: 0, normal islet; 1, peri-insular leukocyte aggregates; 2, leukocyte infiltration <25%; 3, leukocyte infiltration >25%, but <75%; 4, leukocyte infiltration >75% and β-cell destruction, according to standard criteria. For the females, we scored at least 24 islets per group (5 mice per group). […] For the males, 25 islets were scored for the control and PAT group (5 mice per group), and 15 islets from the STAT group (3 mice). […]

[1] = tested on: small intestinal lamina propria T-helper cells; assay: NOD: flow cytometry of Treg and Th17 cells in spleen and SI-LP; assay type: in vivo, NOD mice; details: for percent of SI-LP Th17 (CD4+RORγT+) cells / percent of SI-LP Treg (CD4+ FOXP3+) cells: 6-week old male NOD mice, vs controls
Method: After euthanasia of the mice by CO2 asphyxiation followed by cervical dislocation, the small intestines were dissected and immediately placed in cold calcium and magnesium-free DPBS, followed by removal of the mesenteric fat and Peyer's patches. The intestines were opened longitudinally and contents were removed by washing thoroughly with cold DPBS. The intestines were then cut into 2 cm pieces and treated with 10 ml 1 mM DTT/PBS, shaken at RT for 10 minutes to remove contaminating intraepithelial lymphocytes. Subsequently, the intestinal tissue was treated two times with 30 mM EDTA and 10 mM HEPES in PBS to remove epithelial cells. To isolate lamina propria lymphocytes, intestinal tissue was digested for 1.5 hours at 37° C. in digestion mix (0.5 mg/ml Collagenase/Dispase (Roche), 150 μg /ml DNase 1 (Sigma) in complete RPMI. Cells were passed through a 100 μm diameter nylon mesh filter (BD Bioscience). For further purification of leukocytes, intestinal cell suspensions were resuspended in 40% Percoll, under-layered with 80% Percoll (GE Healthcare Life Sciences) and centrifuged at 2,200 rpm for 25 minutes at room temperature. The leukocytes were collected at the interphase of the 40% 80% discontinuous Percoll gradient, then washed and re-suspended in DPBS for staining.
Cells were incubated with blue Live/DEAD fixable dye (Invitrogen) for 10 minutes at 4° C. to identify live cells. Intestinal leukocytes were phenotyped using the following antibodies: CD3-APC-Cy™7 (BD Biosciences), CD4− PE-Alexa Fluor 610 (Invitrogen), CD8− V500 (BD Biosciences), RORγt-PE (eBioscience), Foxp3-PE-Cy7 (eBioscience). Cells were first incubated with surface antibodies (each at 1:50 in FACS buffer) along with FC block (Anti-Mouse CD16/CD32, eBioscience) at 1:200 for 30 minutes at 4° C. Then the cells were fixed and permeabilized with Fix/Perm (eBioscience) and subsequently incubated with the nuclear antibodies in perm/wash buffer for 30 minutes at 4° C. (eBioscience).
All cells were acquired on a LSRII (BD Biosciences) and analyzed using FlowJo software (version 9.3.2; Tree Star Inc.).
Flow cytometry was performed on splenic and SI-LP cells from 6-week old male and female NOD mice. CD3 and CD4 surface stains and a live/dead stain were used to gate on live T-helper cells. Nuclear staining for FOXP3 and RORγT was performed to identify Treg and Th17 cells, respectively. By qPCR, SFB was below detectable limits in fecal specimens collected at 3 weeks and 6 weeks of age from all of the mice used in the above analysis. The range for SFB qPCR assay was from 10^2 to 10^6 copies of SFB. […] PAT decreased the percent of SI-LP Treg and Th17 cells in male, but not female NOD mice. C=controls, S=STAT, P=PAT. Statistical analysis was performed on each tissue separately, using the Kruskal-Wallis test followed by the Dunn's multiple comparison test, ** p≦0.01. […] This work provides evidence that PAT changes T-cell populations in the NOD mice that are developing T1D and insulitis earlier.

[2] = tested on: splenic CD4+ and CD8+ T-cells; assay: NOD: flow cytometry of IFNγ-producing splenic T-cells; assay type: in vivo; details: 6-week old male NOD mice, n=7, vs controls, p<0.01
Method: Leukocytes were isolated from spleens harvested from 6-week old control (n=7) and PAT-treated (n=7) NOD mice. Flow cytometric analysis was performed to assess T-cell cytokine production. Mann-Whitney U-test, ** p<0.01. Bar heights represent the means and error bars represent the standard deviations. […] Taxa with at least two significant timepoints (indicated by *) are illustrated at the phylum, genus, and species level. Dark grey and light grey coloration indicates enrichment at the specified time point in control and in PAT specimens, respectively.

Row | Compound | islet inflammation (insulitis score 0-4) (pancreatic islets; 6-week old NOD females, vs controls) | percent of SI-LP Th17 (CD4+RORγT+) cells [1] | percent of SI-LP Treg (CD4+ FOXP3+) cells [1] | insulitis (score 0-4) (pancreatic islets; 6-week old NOD males, vs control or STAT males) | proportion of IFNγ-producing splenic CD4+ T-cells [2] | proportion of IFNγ-producing splenic CD8+ T-cells [2] | decrease of percent of SI-LP Treg and Th17 cells ([1]; 6-week old female NOD mice)
1 | CC1(C)S[C@@H]2[C@H](NC(=O)COc3ccccc3)C(=O)N2[C@H]1C(=O)[O-].[K+] [STAT, penicillin VK] | significantly more | intermediate | intermediate | – | – | – | –
2 | CC[C@H]1OC(=O)C[C@@H](O)[C@H](C)[C@@H](O[C@@H]2O[C@H](C)[C@@H](O[C@H]3C[C@@](C)(O)[C@@H](O)[C@H](C)O3)[C@H](N(C)C)[C@H]2O)[C@@H](CC=O)C[C@@H](C)C(=O)/C=C/C(C)=C/[C@@H]1CO[C@@H]1O[C@H](C)[C@@H](O)[C@@H](OC)[C@H]1OC [Tylosin, Tylosin tartrate] | – | decreased | decreased | significantly more | increased | increased | not
